pIC50: −log10 of the molar value. Numbered stars: 1 amine (or outer) side, 2 acyl side, 3 side chain; on linkers, the order of the positions; unused ones are H or OH. Side chains are listed from the residue outwards. Peptide text beside a SMILES is read from it. * marks the point of attachment. C20 diacid = O=C(O)CCCCCCCCCCCCCCCCCCC(=O)*; γGlu = O=C(O)[C@H](CCC(=O)[*:2])N[*:1]; AEEA = NCCOCCOCC(=O)O
How the values were obtained:
Human CRF2 receptor = target: T1, Human CRF2 receptor (Homo sapiens, UniProt Q13324); assay: CRF2 receptor binding, scintillation proximity assay (SPA); settings: displacement of [125I]-Sauvagine, CHO-K1 cell membranes
T1 construct: host or cells: CHO-K1 (membrane preparation)
T1 sequence (Q13324 1-411): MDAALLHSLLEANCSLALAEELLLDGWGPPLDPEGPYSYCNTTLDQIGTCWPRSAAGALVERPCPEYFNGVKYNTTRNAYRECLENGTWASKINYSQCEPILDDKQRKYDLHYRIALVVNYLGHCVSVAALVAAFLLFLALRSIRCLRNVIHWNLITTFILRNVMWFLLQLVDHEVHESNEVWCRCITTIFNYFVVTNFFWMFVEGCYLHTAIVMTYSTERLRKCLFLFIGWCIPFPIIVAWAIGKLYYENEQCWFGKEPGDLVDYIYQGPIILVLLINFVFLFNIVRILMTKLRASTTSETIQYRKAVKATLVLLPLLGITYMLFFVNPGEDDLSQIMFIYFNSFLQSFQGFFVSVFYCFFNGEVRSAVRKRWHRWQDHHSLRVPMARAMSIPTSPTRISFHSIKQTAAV
Method: The purpose of this example was to test the in vitro binding of the compounds of the invention to receptor subtypes CRF1 and CRF2. The in vitro binding of the compounds was determined in a scintillation proximity assay (SPA) as described below. The native, human Ucn1 and Ucn2 peptides are included as references. Scintillation Proximity Assay: […] Both cell lines were cultured at 37° C. in a humidified atmosphere with 5% CO2. […] Membranes were prepared by the following protocol: cultured cells were washed twice with cold Dulbecco’s phosphate buffered saline and detached using TrypLE™ (ThermoFisher) and transferred to tubes and centrifuged for 5 minutes at 1000 g at +4° C. Pellets were resuspended in ice cold homogenization buffer (20 mM Hepes pH 7.1, 5 mM MgCl2, 1 mg/ml Bacitracin with 2 complete EDTA-free protease inhibitor cocktail tablets/50 ml (Roche)) and then homogenized for 30 seconds using a Ultra-Turrax T25 tissue homogenizer (IKA) at medium speed. The homogenate was centrifuged at 35,000 g for 15 minutes at +4° C. using an ultracentrifuge, and the supernatant was discarded, and fresh homogenization buffer was added. Homogenization of the pellet was repeated a total of three times. The final pellet was resuspended in a few millilitres of homogenization buffer and protein concentration was determined using the Bradford method. The membrane preparation was transferred to cryotubes, and the aliquots were stored at -80° C. Each membrane preparation was subsequently titrated to give an appropriate window in the assay. Test procedure: […] Plates were sealed and incubated at 25° C. for 2 hours in a plate shaker set at 400 rpm and thereafter centrifuged at 1500 rpm for 10 minutes. SPA plates were let to stand at room temperature for about 16 hours prior to reading on microplate scintillation counter. Displacement of radioligand was measured as reduction in luminescence, and IC50 values were calculated by nonlinear regression analysis of four parameter sigmoidal dose-response curves.

[1] = Pharmacokinetic study in minipigs after intravenous administration; format: in vivo; settings: female, Göttingen, minipig, plasma, i.v., 2 nmol/kg, harmonic mean, read-out: Terminal half-life (converted)
Source text: The purpose of this investigation was to determine the in vivo half-life of the compounds of the invention after i.v. administration to minipigs using a pharmacokinetic (PK) study in Göttingen Minipigs assessing terminal half-life. The expression ‘terminal half-life’ as used herein, and means the time period required to reduce the plasma concentration by 50%, measured after the initial distribution phase.
Animals and housing: Female Göttingen Minipigs, weighing approximately 15-25 kg, were obtained from Ellegaard Minipigs, Dalmose Denmark. The minipigs were housed individually in the Animal Unit at BioAdvice A/S, ∅lstykke Denmark (later Minerva Imaging A/S) and were fed restrictedly twice daily with Altromin 9033 (Chr. Petersen A/S, Ringsted, Denmark). […]
Administration of peptides and dosing solutions: There were no food restrictions during the study and the animals had ad libitum access to water during the whole study period. […] The plasma samples were analysed as described below.
Quantitative Assay for Plasma Samples: The test compound was assayed in plasma by turbulent flow chromatography coupled to liquid chromatography mass spectrometric (LCMS) detection. The selectivity of the method allowed various test compounds to be quantitated in one sample, e.g. cassette dosing. […]

pIC50 (Human CRF2 receptor) | half-life [1] [h] | SMILES
8.83 | 103 | CC[C@H](C)[C@H](NC(=O)[C@H](CCC(=O)O)NC(=O)[C@H](C)NC(=O)[C@H](CC(N)=O)NC(=O)[C@@H](NC(=O)[C@@H](NC(=O)[C@H](C)NC(=O)[C@H](CCC(N)=O)NC(=O)[C@H](CCC(=O)O)NC(=O)[C@H](CCCNC(=N)N)NC(=O)[C@H](C)NC(=O)[C@H](C)NC(=O)[C@H](CCCNC(=N)N)NC(=O)[C@H](C)NC(=O)[C@H](CCCNC(=N)N)NC(=O)[C@H](C)NC(=O)[C@H](CCC(N)=O)NC(=O)[C@H](CCC(=O)O)NC(=O)[C@H](CC(C)C)NC(=O)[C@H](CC(C)C)NC(=O)[C@@H](NC(=O)[C@H](CCC(N)=O)NC(=O)[C@H](CC(C)C)NC(=O)[C@H](CC(C)C)NC(=O)CNC(=O)[C@@H](NC(=O)[C@@H]1CCCN1C(=O)[C@@H](NC(=O)[C@H](CC(=O)O)NC(=O)[C@H](CC(C)C)NC(=O)[C@H](CO)NC(=O)[C@H](CC(C)C)NC(=O)[C@@H](NC(=O)[C@@H](NC(=O)[C@@H](N)CCCCNC(=O)COCCOCCNC(=O)COCCOCCNC(=O)CC[C@H](NC(=O)CC[C@H](NC(=O)CC[C@H](NC(=O)CCCCCCCCCCCCCCCCCCC(=O)O)C(=O)O)C(=O)O)C(=O)O)[C@@H](C)CC)C(C)C)C(C)C)[C@@H](C)CC)[C@@H](C)CC)[C@@H](C)O)[C@@H](C)O)C(=O)N[C@@H](CC(C)C)C(=O)N[C@@H](CCC(=O)O)C(=O)N[C@@H](CCCNC(=N)N)C(=O)N[C@H](C(N)=O)C(C)C [Compound 4] (H-K([AEEA-AEEA-γGlu-γGlu-γGlu-C20 diacid])IVLSLDVPIGLLQILLEQARARAAREQATTNAEILERV-NH2)
8.94 | 96 | CC[C@H](C)[C@H](NC(=O)[C@H](CCC(=O)O)NC(=O)[C@H](C)NC(=O)[C@H](CC(N)=O)NC(=O)[C@@H](NC(=O)[C@@H](NC(=O)[C@H](C)NC(=O)[C@H](CCC(N)=O)NC(=O)[C@H](CCC(=O)O)NC(=O)[C@H](CCCNC(=N)N)NC(=O)[C@H](C)NC(=O)[C@H](C)NC(=O)[C@H](CCCNC(=N)N)NC(=O)[C@H](C)NC(=O)[C@H](CCCNC(=N)N)NC(=O)[C@H](C)NC(=O)[C@H](CCC(N)=O)NC(=O)[C@H](CCC(=O)O)NC(=O)[C@H](CC(C)C)NC(=O)[C@H](CC(C)C)NC(=O)[C@@H](NC(=O)[C@H](CCC(N)=O)NC(=O)[C@H](CC(C)C)NC(=O)[C@H](CC(C)C)NC(=O)CNC(=O)[C@@H](NC(=O)[C@@H]1CCCN1C(=O)[C@@H](NC(=O)[C@H](CC(=O)O)NC(=O)[C@H](CC(C)C)NC(=O)[C@H](CO)NC(=O)[C@H](CC(C)C)NC(=O)[C@@H](NC(=O)[C@@H](NC(=O)[C@@H](N)CCCCNC(=O)COCCOCCNC(=O)COCCOCCNC(=O)CC[C@H](NC(=O)CC[C@H](NC(=O)CC[C@H](NC(=O)CCCCCCCCCCCCCCCCCCC(=O)O)C(=O)O)C(=O)O)C(=O)O)[C@@H](C)CC)C(C)C)C(C)C)[C@@H](C)CC)[C@@H](C)CC)[C@@H](C)O)[C@@H](C)O)C(=O)N[C@@H](CC(C)C)C(=O)N[C@@H](C)C(=O)N[C@@H](CCC(=O)O)C(=O)N[C@H](C(N)=O)C(C)C [Compound 3] (H-K([AEEA-AEEA-γGlu-γGlu-γGlu-C20 diacid])IVLSLDVPIGLLQILLEQARARAAREQATTNAEILAEV-NH2)
